Key:
TcCCE34 = assay: inhibition of alpha-naphthyl acetate hydrolysis; format: biochemical, Tetranychus cinnabarinus; conditions: 3 × 10^−4 mol/L alpha-naphthyl acetate; 10 min preincubation 30 °C; 5% acetone
TcGSTm8 = target: T1, TcGSTm8 (Tetranychus cinnabarinus, UniProt U5YE47); assay: inhibition of CDNB conjugation; format: biochemical; conditions: 6 mM GSH; 0.6 mM CDNB; 10 min preincubation 25 °C; 5% acetone
T1 sequence (U5YE47 1-227): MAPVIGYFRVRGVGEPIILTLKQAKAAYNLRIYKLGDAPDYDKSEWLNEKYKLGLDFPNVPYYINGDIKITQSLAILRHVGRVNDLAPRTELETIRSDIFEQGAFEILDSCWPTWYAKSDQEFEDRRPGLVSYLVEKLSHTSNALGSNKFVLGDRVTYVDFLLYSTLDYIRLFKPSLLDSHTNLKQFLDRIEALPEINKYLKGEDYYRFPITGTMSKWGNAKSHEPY

SMILES | IC50 (TcCCE34) | IC50 (TcGSTm8)
COCCOC(=O)C(C#N)(C(=O)c1ccccc1C(F)(F)F)c1ccc(C(C)(C)C)cc1 (stereo not drawn) [cyflumetofen] | 630 ± 39.8 µM | 1570 ± 110 µM
CCOP(=S)(OCC)Oc1nc(Cl)c(Cl)cc1Cl [chlorpyrifos] | 57.2 ± 7.42 µM | 1180 ± 90 µM
CC1(C)C(C(=O)OC(C#N)c2cccc(Oc3ccccc3)c2)C1(C)C (stereo not drawn) [fenpropathrin] | 42.5 ± 8.44 µM | 1090 ± 50 µM

From paper PMC12375005 (Communications Biology, 2025)
